# Source: US8716440B2, “Method of liberating and recovering peptide” (Sysmex Corporation, priority 2011, dated 2014)
# Residues, ends and D or L forms follow the SMILES beside them.
# What was measured:
# [1] = target: T1, bovine serum albumin (BSA) (Bos taurus, UniProt P02769); assay: Fluorescence titration method, Kd between BSA and peptide; format: binding
# T1 construct: purchased Sigma-Aldrich Japan Inc
# Excerpt: FITC-SA21 (Biologica Co, Ltd.) in which SA21 consisting of 18 amino acids was labeled with fluorescein isothiocyanate (FITC) (a green fluorescent dye) was used as a peptide. The SA21 is an acidic peptide. The used albumin was BSA (Sigma-Aldrich Japan Inc.).
# [2] = target: T2, human serum albumin (HSA) (Homo sapiens, UniProt P02768); assay: Fluorescence titration method, Kd between HSA and peptide; format: binding; conditions: solution in ultrapure water: ACTH partial peptide 34 μM, TMR-ACTH partial peptide 6 μM, HSA 600 μM
# T2 construct: purchased Sigma-Aldrich Japan Inc
# Excerpt: The ACTH is a basic peptide. The used albumin was human serum albumin (HSA, Sigma-Aldrich Japan Inc.).
# T1 sequence (P02769 25-607): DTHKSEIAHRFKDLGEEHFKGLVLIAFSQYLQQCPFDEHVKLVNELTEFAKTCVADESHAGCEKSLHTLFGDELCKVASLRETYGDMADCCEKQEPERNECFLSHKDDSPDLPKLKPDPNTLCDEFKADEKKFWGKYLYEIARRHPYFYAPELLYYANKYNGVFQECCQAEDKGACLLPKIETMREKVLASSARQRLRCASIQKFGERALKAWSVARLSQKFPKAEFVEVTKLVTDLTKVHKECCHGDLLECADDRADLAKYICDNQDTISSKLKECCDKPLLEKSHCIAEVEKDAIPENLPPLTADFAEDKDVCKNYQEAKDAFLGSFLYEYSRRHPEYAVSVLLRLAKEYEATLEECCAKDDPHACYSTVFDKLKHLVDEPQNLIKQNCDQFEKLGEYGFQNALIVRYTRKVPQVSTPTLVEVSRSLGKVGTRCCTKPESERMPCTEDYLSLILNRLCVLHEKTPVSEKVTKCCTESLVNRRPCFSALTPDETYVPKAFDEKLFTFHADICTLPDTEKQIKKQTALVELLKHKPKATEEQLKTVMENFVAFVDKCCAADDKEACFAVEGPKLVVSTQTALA
# T2 sequence (P02768 25-609): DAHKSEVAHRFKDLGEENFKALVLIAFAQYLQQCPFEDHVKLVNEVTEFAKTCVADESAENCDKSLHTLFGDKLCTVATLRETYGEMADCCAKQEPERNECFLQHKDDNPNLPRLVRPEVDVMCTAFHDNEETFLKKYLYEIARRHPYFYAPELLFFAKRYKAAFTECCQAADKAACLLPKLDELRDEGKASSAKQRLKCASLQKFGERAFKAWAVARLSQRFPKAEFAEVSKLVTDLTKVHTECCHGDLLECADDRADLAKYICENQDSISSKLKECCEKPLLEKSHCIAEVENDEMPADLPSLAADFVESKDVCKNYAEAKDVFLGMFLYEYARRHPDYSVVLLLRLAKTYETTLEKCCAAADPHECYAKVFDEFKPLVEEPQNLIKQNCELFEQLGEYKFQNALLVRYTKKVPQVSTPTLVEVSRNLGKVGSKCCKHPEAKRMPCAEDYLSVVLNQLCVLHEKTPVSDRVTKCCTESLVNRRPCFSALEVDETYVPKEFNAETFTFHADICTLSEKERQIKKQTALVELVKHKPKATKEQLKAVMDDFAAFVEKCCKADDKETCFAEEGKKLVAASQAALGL
Structure (SMILES),"Kd ([1]; fluorescence titration, read-out: Kd value between the BSA and FITC-SA21) [nM]","fraction of FITC-SA21 forming a complex with albumin ([1]; solution in ultrapure water: FITC-SA21 43 (M, BSA 100 (M)), printed as complex with the HSA) [%]",affinity of binding to BSA relative to affinity of binding between the HSA and ACTH partial peptide ([1]; times stronger than HSA/ACTH partial peptide binding) [times],fraction of peptide forming a complex with the HSA [2] [%]
"CC[C@H](C)[C@H](NC(=O)[C@H](CC(C)C)NC(=O)[C@H](CCCNC(=N)N)NC(=S)Nc1ccc2c(c1)C(=O)OC21c2ccc(O)cc2Oc2cc(O)ccc21)C(=O)N[C@@H](CCC(=O)O)C(=O)N[C@@H](CC(=O)O)C(=O)N[C@H](C(=O)N[C@H]1CSSC[C@@H](C(=O)N[C@@H](CC(C)C)C(=O)N[C@@H](Cc2c[nH]c3ccccc23)C(=O)N[C@@H](CCC(=O)O)C(=O)N[C@@H](CC(=O)O)C(=O)N[C@@H](CC(=O)O)C(N)=O)NC(=O)CNC(=O)[C@H](Cc2c[nH]c3ccccc23)NC(=O)[C@H](CCCNC(=N)N)NC(=O)[C@@H]2CCCN2C(=O)[C@H](CC(C)C)NC1=O)[C@@H](C)CC [FITC-SA21] (HELM PEPTIDE1{[O=C1OC2(c3ccc(O)cc3Oc3cc(O)ccc32)c2ccc(NC(=S)[*:2])cc21].R.L.I.E.D.I.C.L.P.R.W.G.C.L.W.E.D.D.[am]}$PEPTIDE1,PEPTIDE1,8:R3-14:R3$$$V2.0; N-terminus and C-terminus assumed)",≤ 1000,98.3,6,–
CSCC[C@H](NC(=O)[C@H](CO)NC(=O)[C@H](Cc1ccc(O)cc1)NC(=O)[C@H](CO)NC(=O)c1ccc2c(c1)C(=O)OC21c2ccc(N(C)C)cc2Oc2cc(N(C)C)ccc21)C(=O)N[C@@H](CCC(=O)O)C(=O)N[C@@H](Cc1c[nH]cn1)C(=O)N[C@@H](Cc1ccccc1)C(=O)N[C@@H](CCCNC(=N)N)C(=O)N[C@@H](Cc1c[nH]c2ccccc12)C(=O)NCC(=O)N[C@@H](CCCCN)C(=O)N1CCC[C@H]1C(=O)N[C@H](C(=O)NCC(=O)N[C@@H](CCCCN)C(=O)N[C@@H](CCCCN)C(=O)N[C@@H](CCCNC(=N)N)C(=O)N[C@@H](CCCNC(=N)N)C(=O)N1CCC[C@H]1C(=O)N[C@H](C(=O)N[C@@H](CCCCN)C(=O)N[C@H](C(=O)N[C@@H](Cc1ccc(O)cc1)C(=O)N1CCC[C@H]1C(=O)O)C(C)C)C(C)C)C(C)C [TMR-ACTH partial peptide],–,–,–,98.9
